Assay results taken from publication PMC7804430, “Synthesis and tumour cell uptake studies of gadolinium(III)–phosphonium complexes” (Scientific Reports, 2021).

How the values were obtained:
[1] = Competition (challenge) stability assay with xylenol orange at acidic pH; assay type: physicochemical; conditions: absorbance shift 433 to 573 nm
Method: In this work, the relative stability of complexes 6 and 7 were compared to the previously-reported archetypal Gd(III)-DO3A triphenylphosphonium complex (11, shown in Fig. 2) at acidic pH by means of a competition (challenge) assay using the lanthanoid(III) ion indicator xylenol orange[32]. These assays were performed under mildly acidic conditions to ensure the phenolic hydroxyl was protonated prior to chelation.
Solution stability assays were performed using the method described by Barge et al.[32]. Initially an acetate buffer solution (50 mM) was prepared, a portion of which was adjusted to pH 5.8 using NaOH, while other portions were adjusted to pH 5.0, 4.0, or 3.0 using glacial acetic acid. Xylenol orange (5.81 mg) was dissolved in the pH 5.8 acetate buffer (48.4 mL) to give a 10 × concentrated stock solution. These solutions were treated as light sensitive, work was conducted in minimal light and solutions were covered in foil.
25 mM stock solutions of each GdCl3, […] 11 were prepared in the various buffer solutions. […] The plates were agitated in a plate reader and allowed to equilibrate for 24 h. […] The plates were again agitated in a plate reader and allowed to equilibrate for 15 min at RT. The absorbance values were then determined at both 573 nm and 433 nm by means of a BMG LABTECH POLARstar Omega, UV Spectrometer, and the data plotted and processed using Graphpad Prism 7.

[2] = literature values for HPLC calibration curve; cited from earlier work
HF1 tumour cell line = tested on: HF1 tumour cell line; design: method as in PMID 19825958, PMID 15388578; conditions: cited from earlier work

[Cl][Gd]([Cl])[Cl] [GdCl3]
% Gd^3+ retention ([1]; pH 5.0, 24 h): 0%
% Gd^3+ retention ([1]; pH 5.8, 24 h): 0%

Nc1ccccc1 [aniline]
logD7.4 of calibration standards [2]: 0.90

c1ccc(N(c2ccccc2)c2ccccc2)cc1 [triphenylamine]
logD7.4 of calibration standards [2]: 5.74

Motexafin-Gd [MGd]
IC50 (HF1 tumour cell line; HF1 tumour cell line, read-out: Concentration resulting in 50% cell arrest): < 100 µM
Concentration exhibiting significant cytotoxicity (HF1 tumour cell line; in the absence of any X-ray irradiation): ca. 50 μM
